Experiments:
[1] = target: T1, recombinant RIPK1 (Homo sapiens, UniProt Q13546); experiment: RIPK1 ADPGlo kinase assay; assay type: biochemical; conditions: concentrations up to 1 µM
T1 construct: made in house
Method: Cell viability was determined using CellTiter‐Glo assay (Promega). […] Kinase activities were determined using ADPGlo assay (Promega). • Structure of the active conformation of RIPK2 kinase domain in complex with AMP‐PNP (PDB ID: 5AR3). Figure depicts locations of the adenine and deep pockets. […] Key residues discussed in the text are shown as sticks (Lys/Glu Glu‐in bond—bottom left, catalytic Asp residues (Asp146/Asp164)—bottom right, R‐spine—right). P‐loop of CSLP18 structure is shown in yellow. Structured segment of activation segment (AS) observed in active conformation structures is shown in red. • Structure of RIPK2 kinase domain (gray ribbons) in complex with CSLP18 (orange) (PDB ID 6FU5). Sticks are shown for residues in the vicinity of the cavity surrounding the key inhibitor position R1. A 2Fo‐Fc electron density map contoured at 1 sigma is shown for the inhibitor and the residues lining the key region around inhibitor R^1 position. • Molecular docking model of RIPK2 kinase domain in complex with CSLP37 (yellow) based on RIPK2/CSLP18 structure (Fig 3D). […] Data information: Data in (A–C, G) represent the mean ± SEM of three independent experiments. **P < 0.01. Two‐way ANOVA was used to determine statistical significance. […]

[2] = system: U2OS/NOD2, THP1, RAW264.7 and HEKBlue cells; experiment: CellTiter-Glo viability assay; assay type: cell-based; conditions: U2OS/NOD2, THP1, RAW264.7, HEKBlue; 24 h; up to 1 µM
Method: Cell viability was determined using CellTiter‐Glo assay (Promega). […] Kinase activities were determined using ADPGlo assay (Promega). • Structure of the active conformation of RIPK2 kinase domain in complex with AMP‐PNP (PDB ID: 5AR3). Figure depicts locations of the adenine and deep pockets. […] Key residues discussed in the text are shown as sticks (Lys/Glu Glu‐in bond—bottom left, catalytic Asp residues (Asp146/Asp164)—bottom right, R‐spine—right). P‐loop of CSLP18 structure is shown in yellow. Structured segment of activation segment (AS) observed in active conformation structures is shown in red. • Structure of RIPK2 kinase domain (gray ribbons) in complex with CSLP18 (orange) (PDB ID 6FU5). Sticks are shown for residues in the vicinity of the cavity surrounding the key inhibitor position R1. A 2Fo‐Fc electron density map contoured at 1 sigma is shown for the inhibitor and the residues lining the key region around inhibitor R^1 position. • Molecular docking model of RIPK2 kinase domain in complex with CSLP37 (yellow) based on RIPK2/CSLP18 structure (Fig 3D). […]
GST-BIR2-XIAP as indicated. Intensity quantification of SPOTs was performed using ImageJ software (Schneider et al., 2012). […]
for cell death) or vehicle for 24h. Viability was determined using the CellTiter-Glo® luminescent cell […]

[3] = system: RAW264.7 cells (TLR4 activation by LPS); experiment: TNF ELISA, LPS-stimulated RAW264.7 cells; assay type: cell-based, mouse; conditions: LPS 10 ng/ml; inhibitor even at 1 μM
Method: Figure EV3 Activity of select CSLP inhibitors in MDP and LPS‐stimulated RAW264.7 macrophages • A, B ELISA measurement of TNF release from RAW264.7 cells treated with MDP (10 μg/ml, 24 h) (A) or LPS (10 ng/ml) (B) and CSLP compounds as indicated. Values are expressed relative to the TNF release in cells treated with MDP without inhibitor (A) or as ng/ml TNF (B). Data information: Data represent the mean ± SEM of 2–3 independent experiments. Statistical significance in (B) is determined in relation to […] samples without inhibitor *P < 0.05, **P < 0.01, n.s., not significant. Two‐tailed unpaired Student's t‐test was used to determine statistical significance. […]
For HEKBlue assay, cells were seeded into clear 96 well plates at 7.5x10^3 cells/well and allowed to attach for 48 h. […] After 8-9 h, absorbance at 620 nm was measured using Victor3V plate reader (Perkin Elmer, Waltham, MA). Values of media-only wells were subtracted and %inhibition for each compound concentration relative to the DMSO/L18-MDP-treated controls were calculated.
Inhibition values + StDev were fitted by non-linear regression using Prism software (GraphPad Software, La Jolla, CA) to calculate IC50 values. […] After induction, 20 μl of media was mixed with 180 μl of QUANTI-Blue reagent (InvivoGen) and incubated at 37 °C for 3-4 h, followed by absorbance measurement at 620 nm. […]

T1 sequence (Q13546 whole entry, species assumed): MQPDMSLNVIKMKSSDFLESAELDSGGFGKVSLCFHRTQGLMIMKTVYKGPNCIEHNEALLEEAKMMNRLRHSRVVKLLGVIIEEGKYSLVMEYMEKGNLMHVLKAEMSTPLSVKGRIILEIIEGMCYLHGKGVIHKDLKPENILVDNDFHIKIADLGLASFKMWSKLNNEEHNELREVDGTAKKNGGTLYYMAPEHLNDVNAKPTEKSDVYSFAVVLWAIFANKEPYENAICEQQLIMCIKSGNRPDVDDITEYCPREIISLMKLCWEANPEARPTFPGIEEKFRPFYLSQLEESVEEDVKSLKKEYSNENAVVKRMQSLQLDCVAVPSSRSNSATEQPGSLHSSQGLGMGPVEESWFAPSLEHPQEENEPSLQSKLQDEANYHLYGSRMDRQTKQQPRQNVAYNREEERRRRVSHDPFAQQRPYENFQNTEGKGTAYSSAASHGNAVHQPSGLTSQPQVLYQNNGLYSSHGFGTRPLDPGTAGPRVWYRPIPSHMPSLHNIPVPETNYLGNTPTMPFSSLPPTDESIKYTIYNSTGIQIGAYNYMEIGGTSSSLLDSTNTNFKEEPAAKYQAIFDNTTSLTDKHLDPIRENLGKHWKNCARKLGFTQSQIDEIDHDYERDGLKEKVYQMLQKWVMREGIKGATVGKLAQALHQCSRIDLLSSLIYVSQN

| Structure (SMILES) | inhibitory activity against RIPK1 [1] | toxicity in the cell lines used [2] | TNF release following LPS [3] |
| --- | --- | --- | --- |
| CCCS(=O)(=O)Nc1cc(-c2cc(-c3ccc(N4CCNCC4)cc3)cnc2N)cc(F)c1OC [CSLP37] | no inhibitory activity | did not have measurable toxicity | neither CSLP37 nor CSLP43 attenuated |
| CCCS(=O)(=O)Nc1cc(-c2cc(-c3ccc(N4CCNCC4)cc3)cnc2N)cc(OC)c1OC [CSLP43] | no inhibitory activity | did not have measurable toxicity | neither CSLP37 nor CSLP43 attenuated |
